Measured values from patent publication US20080085494A1, “Dental Compositions Containing Oxirane Monomers” (priority 2004, published 2008).

Key:
Assay type in all cases: cell-based
Settings in all cases: results to date
strain TA100 = assay: Ames mutagenicity evaluation, strain TA100
Procedure: (§1) Ames mutagenicity evaluations of Compounds A-D were performed by the School of Pharmacy, University of Missouri at Kansas City (UMKC). Results to date have shown Compounds A, C, and D to be negative in strains TA100 and TA97A.

strain TA97A = assay: Ames mutagenicity evaluation, strain TA97A
Procedure: as §1

strain TA98 = assay: Ames mutagenicity evaluation, strain TA98
strain TA102 = assay: Ames mutagenicity evaluation, strain TA102
strain TA1535 = assay: Ames mutagenicity evaluation, strain TA1535

Structure (SMILES) | Ames mutagenicity (strain TA100) | Ames mutagenicity (strain TA97A) | Ames mutagenicity (strain TA98) | Ames mutagenicity (strain TA102) | Ames mutagenicity (strain TA1535)
c1ccc(OCCCOc2ccccc2CC2CO2)c(CC2CO2)c1 (centres unmarked) [Compound B, 1,3-Bis[2-(2,3-epoxypropyl)phenoxy]propane] | negative | marginally positive | negative | negative | negative
c1ccc(OCCCCCCOc2ccccc2CC2CO2)c(CC2CO2)c1 (centres unmarked) [Compound D, 1,6-Bis[2-(2,3-epoxypropyl)phenoxy]hexane] | negative | negative |  |  | 
c1ccc(OCCCCCCCCCCOc2ccccc2CC2CO2)c(CC2CO2)c1 (centres unmarked) [Compound A, 1,10-Bis[2-(2,3-epoxypropyl)phenoxy]decane] | negative | negative |  |  | 
c1ccc(OCCCCCOc2ccccc2CC2CO2)c(CC2CO2)c1 (centres unmarked) [Compound C, 1,5-Bis[2-(2,3-epoxypropyl)phenoxy]pentane] | negative | negative |  |  | 
